Reference: PMC3988029, “A Trisubstituted Benzimidazole Cell Division Inhibitor with Efficacy against Mycobacterium tuberculosis” (PLoS ONE, 2014)
Values after ≈ are worked out from the molar mass of the structure shown.

Assays:
[1] = tested on: M. tuberculosis clinical isolates; experiment: microbe, parasite or virus in culture; assay type: cell-based; details: Mycobacterium tuberculosis, read-out: MIC against different clinical strains of M. tuberculosis
[2] = tested on: M. tuberculosis H37Rv; assay type: cell-based, Mycobacterium tuberculosis; details: 2×10^9 cells plated on 1.6 µg/mL, 10 times MIC
[3] = tested on: M. tuberculosis; assay type: cell-based; details: for Enhancement of activity against M. tuberculosis in the presence of the partner drug: checkerboard, SB-P17G-A20 with rifampicin

SMILES	MIC [1] [mg/L]	Spontaneous resistant mutants [2]	Enhancement of activity against M. tuberculosis in the presence of the partner drug [3]	ΣFIC ([3]; rifampicin in combination with SB-P17G-A20)
CN(C)c1cc2[nH]c(C3CCCCC3)nc2cc1NC(=O)c1ccc(OC(F)(F)F)cc1 [SB-P17G-A20]	0.16 (≈ 0.358 µM)	no single resistant colony was obtained	2–4 fold	0.75
CO[C@H]1/C=C/O[C@@]2(C)Oc3c(C)c(O)c4c(O)c(c(/C=N/N5CCN(C)CC5)c(O)c4c3C2=O)NC(=O)/C(C)=C\C=C\[C@H](C)[C@H](O)[C@@H](C)[C@@H](O)[C@@H](C)[C@H](OC(C)=O)[C@@H]1C [rifampicin, reference compound]	–	–	2 fold	–
